Values of other authors in patent publication US10983136B2 (DiaSorin S.p.A., priority 2013, dated 2021).

How the values were obtained:
[1] = in circulation, under normal circumstances
[2] = target: T1, vitamin D binding protein (DBP) (Homo sapiens, UniProt P02774); settings: association constant
T1 sequence (P02774 17-474): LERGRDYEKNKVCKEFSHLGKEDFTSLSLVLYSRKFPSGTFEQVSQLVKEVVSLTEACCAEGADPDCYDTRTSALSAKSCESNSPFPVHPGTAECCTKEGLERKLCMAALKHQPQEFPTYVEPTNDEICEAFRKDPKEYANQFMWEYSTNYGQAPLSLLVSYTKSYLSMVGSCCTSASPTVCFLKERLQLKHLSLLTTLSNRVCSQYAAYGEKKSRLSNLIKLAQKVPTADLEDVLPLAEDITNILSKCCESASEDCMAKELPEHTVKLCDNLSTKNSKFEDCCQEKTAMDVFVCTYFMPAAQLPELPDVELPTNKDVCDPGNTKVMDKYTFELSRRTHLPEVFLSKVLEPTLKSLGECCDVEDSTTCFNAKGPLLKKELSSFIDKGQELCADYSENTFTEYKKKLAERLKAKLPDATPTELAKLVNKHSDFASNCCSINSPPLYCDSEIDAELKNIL

[3] = target: T1, vitamin D binding protein (DBP); settings: same pH value (above 6, preferably above 7)

| Compound | free form [1] | Ka (affinity of DBP) [2] | greater affinity of DBP for 25(OH)D over 1,25(OH)2D [3] |
| --- | --- | --- | --- |
| C=C1/C(=C\C=C2/CCC[C@]3(C)[C@@H]([C@H](C)CCCC(C)(C)O)CC[C@@H]23)C[C@@H](O)C[C@@H]1O [1,25(OH)2D, 1,25-dihydroxyvitamin D] | approximately 0.4% | – | – |
| C=C1CC[C@H](O)C/C1=C/C=C1\CCC[C@]2(C)[C@@H]([C@H](C)CCCC(C)(C)O)CC[C@@H]12 [25(OH)D, 25-hydroxyvitamin D] | approximately 0.03% | 5e+08 M⁻¹ | about 1000 fold |
| vitamin D | – | 4e+07 M⁻¹ | – |
